Results on 1 molecule are retold here after EP0402733A2, “Agent for the treatment of central nervous system illnesses and for the enhancement of cerebral blood flow” (Dr. Karl Thomae GmbH, priority 1989, dated 1990).

SMILES strings stand for the structures.

In assay [1] the test system is inhibitorischen Autorezeptoren in hippocampalem Gewebe. Nature of the assay: Transmitter release study: in vitro acetylcholine release from electrically stimulated hippocampal slices, antagonism of carbachol. Type of assay: biochemical, Ratten. The text has this:
Die Versuche zur in-vitro Freisetzung von Acetylcholin aus hippocampalen Gewebeschnitten wurden in Analogie zu Anordnungen durchgeführt, die für die Freisetzung von 5-HT aus Hypothalamus- bzw. Hippocampus-Gewebe beschrieben sind (vgl. M.H. Richards, Naunyn Schmiedeberg's Arch. Pharmacol. 329, 359-366 (1985) und T.J. Feuerstein, G. Hertting und R. Jackisch, Europ. J. Pharmacol. 107, 233-242 (1985)).
Männliche Ratten (Stamm Chbb:Thom, Gewicht 200 bis 300 g) wurden ohne Vorbehandlung dekapitiert; das gesamte Gehirn wurde sofort entnommen und unter Eiskühlung zerlegt. Gemäß den oben beschriebenen Verfahren wurde der Hippocampus in 0,4 mm dicke Schnitte mit Hilfe eines McIlwain-Gewebehackers geschnitten. Die Gewebeschnitte wurden 30 Minuten lang bei 37°C vorincubiert in Gegenwart von 0,05 mM ³H-Cholin in einem Krebs-Henseleit Puffer der folgenden Zusammensetzung: 120 mM NaCl, 4,8 mM KCl, 1,3 mM CaCl₂, 1,2 mM KH₂PO₄, 1,2 mM MgSO₄ und 25 mM NaHCO₃. Der Puffer enthielt zusätzlich 2 g Glucose und 100 mg EDTA. Der Puffer wurde mit Natronlauge auf einen pH-Wert von 7,4 bei 20°C eingestellt. Alle Lösungen wurden kontinuierlich mit 95 % O₂ und 5 % CO₂ gesättigt. Die Gewebeschnitte wurden daraufhin gespült, jeder Gewebeschnitt wurde jeweils willkürlich auf 12 Superfusionseinheiten verteilt und mit dem Puffer bei 37°C bei einer Fließgeschwindigkeit von 1 ml/min überspült. […]

For assay [2], the target named is muscarinische Rezeptoren der Pia mater des Rindes. Nature of the assay: Inhibition of 3H-NMS binding to muscarinic receptors of bovine pia mater homogenate. The arrangement: species or system Rind. Particulars: 0,3 nM [³H]NMS, 45 min, room temperature. On the procedure: Die Pia-Gefäße von Rinder-Hirnen, erhalten vom lokalen Schlachthof, wurden präpariert und von Blutresten gereinigt. Je 0,5 g-Portionen wurden bei 8°C bis zur weiteren Verwendung gelagert. Zur Homogenatgewinnung wurden 0,5 g Pia-Geäße mittels eines Gewebehackers zerkleinert, in 60 ml HEPES-Puffer (20 mM HEPES, 10 mM MgCl₂, 100 mM NaCl, pH 7,50) aufgenommen, mit einem Ultra-Turrax homogenisiert und 20 min. bei 0°C mit 48000 x g zentrifugiert. Das Pellet wurde erneut mit einem Ultra-Turrax homogenisiert, durch Mull filtriert und mit HEPES-Puffer auf eine Verdünnung von 1:140 bezogen auf das Feuchtgewicht der Gefäße verdünnt.
0,3 nM [³H]NMS und steigende Konzentrationen des Antagonisten wurden mit dem Homogenat in einem Gesamtvolumen von 0,52 ml für 45 min. bei Raumtemperatur inkubiert. Der Inkubationsansatz wurde mit Hilfe eines Scatron Cell Harvesters über Glasfaser-Filtermatten filtriert und zweimal mit eiskalter physiologischer Kochsalzlösung gewaschen. Die Filter-gebundene Radioaktivität wurde in einem Flüssigkeitsszintillationszähler bestimmt. Als unspezifische Bindung wurde die gebundene Radioaktivität in Gegenwart von 10⁻⁶M (-)-Chinuclidinyl-benzilat definiert.

In assay [3] the target is T1, muscarinischen Rezeptoren des Cortex (Rezeptoren vom M₁-Subtyp) (Rattus norvegicus, UniProt P08482).
T1 sequence (P08482 1-460): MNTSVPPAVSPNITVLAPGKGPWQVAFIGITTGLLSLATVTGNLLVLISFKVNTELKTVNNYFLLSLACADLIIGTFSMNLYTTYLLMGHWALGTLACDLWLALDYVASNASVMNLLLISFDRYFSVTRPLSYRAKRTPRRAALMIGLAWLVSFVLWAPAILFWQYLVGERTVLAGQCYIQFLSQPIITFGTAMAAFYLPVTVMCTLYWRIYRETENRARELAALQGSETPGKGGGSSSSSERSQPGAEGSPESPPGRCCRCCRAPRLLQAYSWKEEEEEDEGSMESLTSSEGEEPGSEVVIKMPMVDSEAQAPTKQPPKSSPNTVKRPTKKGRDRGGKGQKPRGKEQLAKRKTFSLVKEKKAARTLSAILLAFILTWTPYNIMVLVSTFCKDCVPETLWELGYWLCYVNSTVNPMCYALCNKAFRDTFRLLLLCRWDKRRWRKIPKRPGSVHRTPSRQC
The assay is described as follows: 3H-NMS binding study at muscarinic receptors of the cortex (cerebral cortex homogenate). The arrangement: species or system Sprague-Dawley-Ratten. As to conditions: 0,3 nM ³H-NMS, Großhirnrinde homogenate 1:3000, 30°C, 45 min. The text has this:
Als Organspender dienten männliche Sprague-Dawley-Ratten mit 180-220 g Körpergewicht. Nach Entnahme der Großhirnrinde wurden alle weiteren Schritte in eiskaltem Hepes-HCl-Puffer (pH 7,4; 100 m molar NaCl, 10 m molar MgCl₂) vorgenommen. Das Gesamtherz wurde mit einer Schere zerkleinert. Alle Organe wurden abschließend in einem Potter homogenisiert.
Für den Bindungstest wurden die Organhomogenate in folgender Weise verdünnt:
Die Inkubation der Organhomogenate erfolgte bei einer bestimmten Konzentration des Radioliganden und einer Konzentrationsreihe der nichtradioaktiven Testsubstanzen im Eppendorf-Zentrifugenröhrchen bei 30°C. Die Inkubationsdauer betrug 45 Minuten. Als Radioligand wurde 0,3 n molar ³H-N-Methylscopolamin (³H-NMS) verwendet. Die Inkubation wurde durch Zugabe von eiskaltem Puffer mit nachfolgender Vakuumfiltration beendet. Die Filter wurden mit kaltem Puffer gespült und ihre Radioaktivität bestimmt. Sie repräsentiert die Summe von spezifischer und unspezifischer Bindung von ³H-NMS. Der Anteil der unspezifischen Bindung wurde defi niert als jene Radioaktivität, die in Anwesenheit von 1 µ molar Chinuclidinylbenzilat gebunden wurde. Es wurden immer Vierfachbestimmungen vorgenommen. Die IC₅₀-Werte der nichtmarkierten Testsubstanzen wurden graphisch bestimmt. […]

On to `CCN(CCCC(=O)N1CCC(C(=O)N(C)C)CC1)C(C)Cc1ccc(OC)cc1` (racemic) [Substanz I, (±)-1-[4-[Ethyl[2-(4-methoxyphenyl)-1-methylethyl]amino]-1-oxobutyl]-N,N-dimethyl-4-piperidincarboxamid], for which, in assay [1] (rat hippocampal slices, electrical stimulation, agonist Carbachol), the “ACh-Release am Hippocampus-Gewebe (pA₂)” value is reported as 8,7. For the same molecule, in assay [1] (selectivity ratio: cortex (M₁) binding versus ACh release in hippocampus), the “Verhältnis von IC₅₀ (Cortex) zu pA₂(ACh-Release)” value was determined as 25. Besides, the “-log IC₅₀ (M)” value in assay [2] was 8,2. The “Rezeptor-Bingungstests Cortex -log IC₅₀ (M)” value in assay [3] is on record as 7,3.
